pEC50: −log10 of the molar value. Numbered stars: 1 amine (or outer) side, 2 acyl side, 3 side chain; on linkers, the order of the positions; unused ones are H or OH. Bridge positions count the residues as written; N and C are the ends. Square brackets hold non-standard residues; d marks the D form. Peptide text beside a SMILES is read from it. * marks the point of attachment. C20 diacid = O=C(O)CCCCCCCCCCCCCCCCCCC(=O)*; γGlu = O=C(O)[C@H](CCC(=O)[*:2])N[*:1]; Hyp = O=C(O)[C@@H]1C[C@@H](O)CN1
Molecular target: T1, hAMY3 receptor (Homo sapiens, UniProt O60896+P30988)
T1 sequence (P30988 25-474): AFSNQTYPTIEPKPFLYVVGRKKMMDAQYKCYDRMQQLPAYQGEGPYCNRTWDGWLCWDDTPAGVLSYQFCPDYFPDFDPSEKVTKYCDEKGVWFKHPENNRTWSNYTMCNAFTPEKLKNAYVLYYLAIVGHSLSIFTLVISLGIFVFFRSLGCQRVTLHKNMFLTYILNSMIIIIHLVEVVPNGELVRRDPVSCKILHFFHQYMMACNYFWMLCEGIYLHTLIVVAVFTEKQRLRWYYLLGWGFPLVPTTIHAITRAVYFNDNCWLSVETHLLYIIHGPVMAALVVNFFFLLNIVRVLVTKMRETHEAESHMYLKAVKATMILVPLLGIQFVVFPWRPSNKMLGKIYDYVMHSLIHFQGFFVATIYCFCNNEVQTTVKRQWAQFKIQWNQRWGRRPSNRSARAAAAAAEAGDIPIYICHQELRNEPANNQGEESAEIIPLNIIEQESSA
T1 sequence (O60896 24-148 partner): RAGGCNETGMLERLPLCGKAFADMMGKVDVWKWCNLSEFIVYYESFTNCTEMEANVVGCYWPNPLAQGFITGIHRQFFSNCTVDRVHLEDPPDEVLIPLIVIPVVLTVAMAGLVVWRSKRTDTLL
Assay: cAMP assay for in vitro receptor activation, hAMY3-R
Assay type: cell-based
Conditions: cAMP assay, hAMY3 receptor; read-out: hAMY3R EC50
Procedure, shortened: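 Monoclonal cell line stably overexpressing hAMY3 receptor, plated in DPBS with 0.05% casein and 0.5 mM IBMX, was stimulated with graded compound doses for 30 min at room temperature. cAMP accumulation was read by time-resolved FRET one hour after adding detection reagents.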

Structure (SMILES) | pEC50
CC[C@H](C)[C@H](NC(=O)[C@H](CCC(N)=O)NC(=O)[C@H](Cc1c[nH]cn1)NC(=O)[C@H](C)NC(=O)[C@H](CC(C)C)NC(=O)[C@H](CCCNC(=N)N)NC(=O)[C@H](CCC(N)=O)NC(=O)[C@@H](NC(=O)[C@@H](NC(=O)[C@@H]1CSSC[C@H](NC(=O)[C@H](CCCCN)NC(=O)CC[C@H](NC(=O)CCCCCCCCCCCCCCCCCCC(=O)O)C(=O)O)C(=O)N[C@@H](CC(N)=O)C(=O)N[C@@H]([C@@H](C)O)C(=O)N[C@@H](C)C(=O)N[C@@H]([C@@H](C)O)C(=O)N1)[C@@H](C)O)C(C)C)C(=O)N[C@@H](Cc1ccc(O)cc1)C(=O)N[C@@H](CCC(N)=O)C(=O)N[C@@H](Cc1ccccc1)C(=O)N[C@H](C(=O)N[C@@H](CC(N)=O)C(=O)N[C@@H](CCCCN)C(=O)N[C@@H](CC(=O)O)C(=O)N[C@@H](CCCCN)C(=O)N[C@@H](CC(=O)O)C(=O)N[C@@H](CC(N)=O)C(=O)N[C@H](C(=O)N[C@@H](C)C(=O)N1CCC[C@H]1C(=O)N1CCC[C@H]1C(=O)N[C@H](C(=O)N[C@@H](CC(N)=O)C(=O)N[C@H](C(=O)NCC(=O)N[C@@H](CO)C(=O)N[C@@H](CC(N)=O)C(=O)NCC(=O)N1C[C@H](O)C[C@H]1C(N)=O)C(C)C)[C@@H](C)O)C(C)C)[C@@H](C)O [compound 82] ({C20 diacid-γGlu}-KCNTATCTVQRLAHQIYQFTNKDKDNVAPPTNVGSNG[Hyp]-NH2; disulfide 2-7) | 10.82
CC[C@H](C)[C@H](NC(=O)[C@H](CCC(N)=O)NC(=O)[C@H](Cc1c[nH]cn1)NC(=O)[C@H](C)NC(=O)[C@H](CC(C)C)NC(=O)[C@H](CCCNC(=N)N)NC(=O)[C@H](CCC(N)=O)NC(=O)[C@@H](NC(=O)[C@@H](NC(=O)[C@@H]1CSSC[C@H](NC(=O)[C@H](CCCCN)NC(=O)CC[C@H](NC(=O)CCCCCCCCCCCCCCCCCCC(=O)O)C(=O)O)C(=O)N[C@@H](CC(N)=O)C(=O)N[C@@H]([C@@H](C)O)C(=O)N[C@@H](C)C(=O)N[C@@H]([C@@H](C)O)C(=O)N1)[C@@H](C)O)C(C)C)C(=O)N[C@@H](Cc1ccc(O)cc1)C(=O)N[C@@H](CCC(N)=O)C(=O)N[C@@H](Cc1ccccc1)C(=O)N[C@H](C(=O)N[C@@H](CC(=O)O)C(=O)N[C@@H](CCCCN)C(=O)N[C@@H](CC(N)=O)C(=O)N[C@@H](CCCCN)C(=O)N[C@@H](CC(=O)O)C(=O)N[C@@H](CC(N)=O)C(=O)N[C@H](C(=O)N[C@@H](C)C(=O)N1CCC[C@H]1C(=O)N1CCC[C@H]1C(=O)N[C@H](C(=O)N[C@@H](CC(N)=O)C(=O)N[C@H](C(=O)NCC(=O)N[C@@H](CO)C(=O)N[C@@H](CC(N)=O)C(=O)NCC(=O)N1C[C@H](O)C[C@H]1C(N)=O)C(C)C)[C@@H](C)O)C(C)C)[C@@H](C)O [compound 91] ({C20 diacid-γGlu}-KCNTATCTVQRLAHQIYQFTDKNKDNVAPPTNVGSNG[Hyp]-NH2; disulfide 2-7) | 10.80
CC[C@H](C)[C@H](NC(=O)[C@H](CCCCN)NC(=O)[C@@H](NC(=O)[C@H](CCCNC(=N)N)NC(=O)[C@@H]1CCCN1C(=O)[C@H](C)NC(=O)[C@@H](NC(=O)[C@H](CC(N)=O)NC(=O)[C@H](CC(=O)O)NC(=O)[C@H](CCCCN)NC(=O)[C@H](CC(=O)O)NC(=O)[C@H](CCCCN)NC(=O)[C@H](CC(=O)O)NC(=O)[C@@H](NC(=O)[C@H](Cc1ccccc1)NC(=O)[C@H](CCC(N)=O)NC(=O)[C@H](Cc1ccc(O)cc1)NC(=O)[C@@H](NC(=O)[C@H](CCC(N)=O)NC(=O)[C@H](Cc1c[nH]cn1)NC(=O)[C@H](C)NC(=O)[C@H](CC(C)C)NC(=O)[C@H](CCCNC(=N)N)NC(=O)[C@H](CCC(N)=O)NC(=O)[C@@H](NC(=O)[C@@H](NC(=O)[C@@H]1CSSC[C@H](NC(=O)CN)C(=O)N[C@@H](CCCNC(=N)N)C(=O)N[C@@H](Cc2ccccc2)C(=O)NCC(=O)N[C@@H]([C@@H](C)O)C(=O)N1)[C@@H](C)O)C(C)C)[C@@H](C)CC)[C@@H](C)O)C(C)C)[C@@H](C)O)C(=O)NCC(=O)N1CCC[C@H]1C(=O)N[C@@H](CC(N)=O)C(=O)NCC(=O)N[C@@H](Cc1ccc(O)cc1)C(N)=O [compound 367] (H-GCRFGTCTVQRLAHQIYQFTDKDKDNVAPRTKIGPNGY-NH2; disulfide 2-7; N-terminus assumed) | 10.85
CC[C@H](C)[C@H](NC(=O)[C@H](CCCCN)NC(=O)[C@H](CO)NC(=O)[C@H](CCCNC(=N)N)NC(=O)[C@@H]1CCCN1C(=O)[C@H](C)NC(=O)[C@@H](NC(=O)[C@H](CC(N)=O)NC(=O)[C@H](CC(=O)O)NC(=O)[C@H](CCCCN)NC(=O)[C@H](CC(=O)O)NC(=O)[C@H](CCCCN)NC(=O)[C@H](CC(=O)O)NC(=O)[C@@H](NC(=O)[C@H](Cc1ccccc1)NC(=O)[C@H](CCC(N)=O)NC(=O)[C@H](Cc1ccc(O)cc1)NC(=O)[C@@H](NC(=O)[C@H](CCC(N)=O)NC(=O)[C@H](Cc1c[nH]cn1)NC(=O)[C@H](C)NC(=O)[C@H](CC(C)C)NC(=O)[C@H](CCCNC(=N)N)NC(=O)[C@H](CCC(N)=O)NC(=O)[C@@H](NC(=O)[C@@H](NC(=O)[C@@H]1CSSC[C@H](NC(=O)CN)C(=O)N[C@@H](CCCNC(=N)N)C(=O)N[C@@H]([C@@H](C)O)C(=O)NCC(=O)N[C@@H]([C@@H](C)O)C(=O)N1)[C@@H](C)O)C(C)C)[C@@H](C)CC)[C@@H](C)O)C(C)C)C(=O)NCC(=O)N1CCC[C@H]1C(=O)N[C@@H](CC(N)=O)C(=O)NCC(=O)N1C[C@H](O)C[C@H]1C(N)=O [compound 157] (H-GCRTGTCTVQRLAHQIYQFTDKDKDNVAPRSKIGPNG[Hyp]-NH2; disulfide 2-7; N-terminus assumed) | 10.33
CC[C@H](C)[C@H](NC(=O)[C@H](CCC(N)=O)NC(=O)[C@H](Cc1c[nH]cn1)NC(=O)[C@H](C)NC(=O)[C@H](CC(C)C)NC(=O)[C@H](CCCNC(=N)N)NC(=O)[C@H](CCC(N)=O)NC(=O)[C@@H](NC(=O)[C@@H](NC(=O)[C@@H]1CSSC[C@H](NC(=O)CN)C(=O)N[C@@H](CCCNC(=N)N)C(=O)N[C@@H](Cc2ccccc2)C(=O)NCC(=O)N[C@@H]([C@@H](C)O)C(=O)N1)[C@@H](C)O)C(C)C)C(=O)N[C@@H](Cc1ccc(O)cc1)C(=O)N[C@@H](CCC(N)=O)C(=O)N[C@@H](Cc1ccccc1)C(=O)N[C@H](C(=O)N[C@@H](CC(=O)O)C(=O)N[C@@H](CCCCN)C(=O)N[C@@H](CC(=O)O)C(=O)N[C@@H](CCCCN)C(=O)N[C@@H](CC(=O)O)C(=O)N[C@@H](CC(N)=O)C(=O)N[C@H](C(=O)N[C@@H](C)C(=O)N1CCC[C@H]1C(=O)N[C@@H](CCCNC(=N)N)C(=O)N[C@@H](CO)C(=O)N[C@@H](CCCCN)C(=O)N[C@H](C(=O)N[C@@H](CO)C(=O)N1CCC[C@H]1C(=O)N[C@@H](CC(N)=O)C(=O)NCC(=O)N[C@@H](Cc1ccc(O)cc1)C(N)=O)C(C)C)C(C)C)[C@@H](C)O [compound 384] (H-GCRFGTCTVQRLAHQIYQFTDKDKDNVAPRSKVSPNGY-NH2; disulfide 2-7; N-terminus assumed) | 10.44

Continued, values first:

pEC50 | Structure (SMILES)
10.51 | CC[C@H](C)[C@H](NC(=O)[C@H](CCC(N)=O)NC(=O)[C@H](Cc1c[nH]cn1)NC(=O)[C@H](C)NC(=O)[C@H](CC(C)C)NC(=O)[C@H](CCCNC(=N)N)NC(=O)[C@H](CCC(N)=O)NC(=O)[C@@H](NC(=O)[C@@H](NC(=O)[C@@H]1CSSC[C@H](NC(=O)CNC(=O)CC[C@H](NC(=O)CCCCCCCCCCCCCCCCCCC(=O)O)C(=O)O)C(=O)N[C@@H](CCCNC(=N)N)C(=O)N[C@@H](Cc2ccccc2)C(=O)N[C@@H](C)C(=O)N[C@@H]([C@@H](C)O)C(=O)N1)[C@@H](C)O)C(C)C)C(=O)N[C@@H](Cc1ccc(O)cc1)C(=O)N[C@@H](CCC(N)=O)C(=O)N[C@@H](Cc1ccccc1)C(=O)N[C@H](C(=O)N[C@@H](CC(=O)O)C(=O)N[C@@H](CCCCN)C(=O)N[C@@H](CC(=O)O)C(=O)N[C@@H](CCCCN)C(=O)N[C@@H](CC(=O)O)C(=O)N[C@@H](CC(N)=O)C(=O)N[C@H](C(=O)N[C@@H](C)C(=O)N1CCC[C@H]1C(=O)N[C@@H](CCCNC(=N)N)C(=O)N[C@H](C(=O)N[C@@H](CCCCN)C(=O)N[C@H](C(=O)NCC(=O)N1CCC[C@H]1C(=O)N[C@@H](CCC(N)=O)C(=O)NCC(=O)N[C@@H](Cc1ccc(O)cc1)C(N)=O)C(C)C)[C@@H](C)O)C(C)C)[C@@H](C)O [compound 380] ({C20 diacid-γGlu}-GCRFATCTVQRLAHQIYQFTDKDKDNVAPRTKVGPQGY-NH2; disulfide 2-7)
10.70 | CC[C@H](C)[C@H](NC(=O)[C@H](CCC(N)=O)NC(=O)[C@H](CC(N)=O)NC(=O)[C@H](C)NC(=O)[C@H](CC(C)C)NC(=O)[C@H](CCCNC(=N)N)NC(=O)[C@H](CCC(N)=O)NC(=O)[C@@H](NC(=O)[C@@H](NC(=O)[C@@H]1CSSC[C@H](NC(=O)CNC(=O)CC[C@H](NC(=O)CCCCCCCCCCCCCCCCCCC(=O)O)C(=O)O)C(=O)N[C@@H](CCCNC(=N)N)C(=O)N[C@@H](Cc2ccccc2)C(=O)NCC(=O)N[C@@H]([C@@H](C)O)C(=O)N1)[C@@H](C)O)C(C)C)C(=O)N[C@@H](Cc1ccc(O)cc1)C(=O)N[C@@H](CCC(N)=O)C(=O)N[C@@H](Cc1ccccc1)C(=O)N[C@H](C(=O)N[C@@H](CC(=O)O)C(=O)N[C@@H](CCCCN)C(=O)N[C@@H](CC(=O)O)C(=O)N[C@@H](CCCCN)C(=O)N[C@@H](CC(=O)O)C(=O)N[C@@H](CC(N)=O)C(=O)N[C@H](C(=O)N[C@@H](C)C(=O)N1CCC[C@H]1C(=O)N[C@@H](CCCNC(=N)N)C(=O)N[C@H](C(=O)N[C@@H](CC(N)=O)C(=O)N[C@H](C(=O)NCC(=O)N1CCC[C@H]1C(=O)N[C@@H](CCC(N)=O)C(=O)NCC(=O)N[C@@H](Cc1ccc(O)cc1)C(N)=O)C(C)C)[C@@H](C)O)C(C)C)[C@@H](C)O [compound 372] ({C20 diacid-γGlu}-GCRFGTCTVQRLANQIYQFTDKDKDNVAPRTNVGPQGY-NH2; disulfide 2-7)
